Results as given in ChEMBL document CHEMBL5346863, “Discovery of substituted benzyloxy-benzylamine inhibitors of acetyltransferase Eis and their anti-mycobacterial activity” (Eur J Med Chem, 2022).
Converted amounts (≈) assume the structure as drawn.

system: Mycobacterium tuberculosis variant bovis; test: Antibacterial activity against Mycobacterium bovis BCG ATCC 35734 assessed as bacterial growth inhibition incubated for 2 to 3 weeks by resazurin dye based assay; format: functional; settings: time 2-3 weeks

Going from `Fc1ccc(COc2cccc(CNCc3ccncc3)c2)cc1` to `Clc1ccc(COc2cccc(CNCc3ccncc3)c2)cc1`, the MIC falls from over 62.5 µM to 62.5 µM (≈ 21.2 µg/mL).

`c1ccc(COc2ccc(CNCc3cccnc3)cc2)cc1` and `c1ccc(COc2ccc(CNCc3ccncc3)cc2)cc1` cannot be ordered by MIC: over 62.5 µM for the first, over 62.5 µM for the second.

`c1ccc(COc2ccccc2CNCc2cccnc2)cc1` and `c1ccc(COc2ccccc2CNCc2ccncc2)cc1` cannot be ordered by MIC: over 62.5 µM for the first, over 62.5 µM for the second.

Compared with `Clc1ccc(COc2ccc(CNCc3ccncc3)cc2)cc1`, `Fc1ccc(COc2ccc(CNCc3ccncc3)cc2)cc1` is 2-fold higher in MIC: 31.3 µM (≈ 10.6 µg/mL) for the first, 62.5 µM (≈ 20.1 µg/mL) for the second.

Going from `Fc1ccc(COc2ccccc2CNCc2cccnc2)cc1` to `Brc1ccc(COc2ccccc2CNCc2cccnc2)cc1`, the MIC falls from over 62.5 µM to 62.5 µM (≈ 24 µg/mL).

`Fc1ccc(COc2ccc(CNCc3cccnc3)cc2)cc1` and `Clc1ccc(COc2ccc(CNCc3cccnc3)cc2)cc1` are the same in MIC: 62.5 µM (≈ 20.1 µg/mL) for the first, 62.5 µM (≈ 21.2 µg/mL) for the second.

First: Fc1ccc(COc2cccc(CNCc3cccnc3)c2)cc1
Second: Clc1ccc(COc2cccc(CNCc3cccnc3)c2)cc1
The MIC of the first is higher: over 62.5 µM for the first, 62.5 µM (≈ 21.2 µg/mL) for the second.

First: Clc1cccc(COc2ccccc2CNCc2ccccc2)c1
Second: Clc1ccc(COc2ccccc2CNCc2ccccc2)cc1
The MIC of the first is 4-fold lower: 15.6 µM (≈ 5.27 µg/mL) for the first, 62.5 µM (≈ 21.1 µg/mL) for the second.

`Clc1ccc(COc2cccc(CNCc3ccccc3)c2)cc1` and `Fc1ccc(COc2cccc(CNCc3ccccc3)c2)cc1` are the same in MIC: 7.8 µM (≈ 2.64 µg/mL) for the first, 7.8 µM (≈ 2.51 µg/mL) for the second.

`Brc1ccc(COc2ccccc2CNCc2ccncc2)cc1` and `Clc1ccc(COc2ccccc2CNCc2ccncc2)cc1` are the same in MIC: 62.5 µM (≈ 24 µg/mL) for the first, 62.5 µM (≈ 21.2 µg/mL) for the second.

Compared with `Cc1ccc(COc2ccc(CNCc3ccccc3)cc2)cc1`, `Clc1ccc(COc2ccc(CNCc3ccccc3)cc2)cc1` is 2-fold higher in MIC: 3.9 µM (≈ 1.24 µg/mL) for the first, 7.8 µM (≈ 2.64 µg/mL) for the second.

First: c1ccc(CNCc2ccc(OCc3ccc(-c4ccccc4)cc3)cc2)cc1
Second: c1ccc(CNCc2ccc(OCc3ccccc3)cc2)cc1
The MIC of the first is 8-fold lower: 3.9 µM (≈ 1.48 µg/mL) for the first, 31.3 µM (≈ 9.5 µg/mL) for the second.

Going from `Brc1ccc(COc2ccccc2CNCc2ccccc2)cc1` to `Fc1ccc(COc2ccccc2CNCc2ccccc2)cc1`, the MIC rises from 62.5 µM (≈ 23.9 µg/mL) to over 62.5 µM.

First: COc1ccc(COc2ccc(CNCc3ccccc3)cc2)cc1
Second: Fc1ccc(COc2ccc(CNCc3ccccc3)cc2)cc1
The MIC of the first is lower: 7.8 µM (≈ 2.6 µg/mL) for the first, over 62.5 µM for the second.

First: CC(C)(C)c1ccc(COc2ccc(CNCc3ccccc3)cc2)cc1
Second: Brc1ccc(COc2ccc(CNCc3ccccc3)cc2)cc1
The MIC of the first is 1.9-fold lower: 2 µM (≈ 0.719 µg/mL) for the first, 3.9 µM (≈ 1.49 µg/mL) for the second.

First: CC(C)c1ccc(COc2ccc(CNCc3ccccc3)cc2)cc1
Second: Brc1cccc(COc2ccc(CNCc3ccccc3)cc2)c1
The MIC of the first is 7.8-fold lower: 1 µM (≈ 0.345 µg/mL) for the first, 7.8 µM (≈ 2.98 µg/mL) for the second.

Going from `Brc1ccccc1COc1ccc(CNCc2ccccc2)cc1` to `c1ccc(CNCc2ccccc2OCc2ccccc2)cc1`, the MIC rises from 7.8 µM (≈ 2.98 µg/mL) to 62.5 µM (≈ 19 µg/mL) (8-fold).

First: Clc1cccc(COc2ccccc2CNCc2cccnc2)c1
Second: Clc1cccc(COc2ccccc2CNCc2ccncc2)c1
The MIC of the first is lower: 62.5 µM (≈ 21.2 µg/mL) for the first, over 62.5 µM for the second.

`NNC(=O)c1ccncc1` [ISONIAZID] showed an MIC of at most 0.25 µM.
